{"source": "patent US20230346769A1", "about": "“USE OF SIMPLE ACYCLIC POLYAMINES FOR THE TREATMENT OF DISEASES CAUSED BY PARASITES OF THE GENUS LEISHMANIA” (Universidad De Granada, priority 2020, published 2023)", "key": {"[1]": {"tested_on": "FeSOD of promastigote forms of L.donovani", "assay": "In vitro inhibition of FeSOD (NBT reduction)", "assay_type": "biochemical, Leishmania donovani", "method": "(§1) Methodology: Compounds that were selected from the leishmanicidal activity shown in previous experiments were evaluated as inhibitors of FeSOD enzyme activity, which is unique to the kinetoplastid parasites to which Leishmania belongs. Being exclusive, it is absent in the vertebrate host, since these usually have an analogous form of that enzyme, but complexed to a copper or zinc atom (Cu/ZnSOD). For this reason, this enzyme is a therapeutic target for the design of new drugs, since the capture of the metal ion by complexing mechanisms can inactivate the enzyme and compromise the survival of the parasite with the appearance of free radicals.\n(§2) Inhibition caused by the novel compounds on FeSOD/ Cu-Zn SOD activity was quantified on the spectrophotometer at 560 nm according to the technique described by [W F. Beyer. I. Fridovich. Anal Biochem. 1987. […]\n(§3) Briefly, the cultured parasites as described in Example 1 underwent centrifugation, the pellet was resuspended (0.5 - 0.6 g/ml) in 3 ml of STE buffer (0.25 M. Tris-HCI 25 mM sucrose. 1 M EDTA. pH 7.8) and underwent 3 cycles of sonication from 30 s at 60 V. Then, it was centrifuged at 1500 g for 10 min at 4° C. and the pellet was washed 3 times with ice-cooled STE buffer. […] Protein concentrations were determined by means of the Bradford method (Sigma-Aldrich) using bovine serum albumin as standard. […]"}, "[2]": {"tested_on": "intracellular forms of L.donovani in J774.2 macrophages", "assay": "Infection rate and parasite growth in infected macrophage cultures", "assay_type": "cell-based, Leishmania donovani", "conditions": "compound at IC25, 10 days", "method": "(§4) Methodology: Macrophages of the J774.2 line preserved in the laboratory of the present inventors by cryopreservation at -80° C. and successive runs in MEM+Glutamine + 20% SBFI medium were used, which were deposited in a […] tube and centrifuged at 100 g for 5 minutes. The supernatant was discarded and the cells were resuspended in medium corresponding to a final concentration of 1×10^6 cells/ml. Subsequently, 10 μl of the cell suspension was deposited into each well of a 24-well culture plate each with a 10 mm diameter round slide. A final volume of 500 μl was completed with the culture medium and incubated for 24 h at 37° C. in humid atmosphere with 5% CO2. […] The non-phagocytic parasites and products were removed by washing and the infected cultures were maintained for 10 days in fresh medium added every 48 hours. The activity of the compounds was determined by the percentage of infected cells and the number of amastigotes per infected cell. Finally, the cultures were fixed and stained with methanol and Giemsa."}, "[3]": {"tested_on": "intracellular forms of L.braziliensis in J774.2 macrophages", "assay": "Infection rate and parasite growth in infected macrophage cultures", "assay_type": "cell-based, Leishmania braziliensis", "conditions": "compound at IC25, 10 days", "method": "as §4"}, "L.donovani promastigotes": {"tested_on": "L.donovani promastigotes", "assay": "Alteration of production and excretion of metabolites (1H NMR)", "assay_type": "cell-based, Leishmania donovani", "conditions": "compound at IC25, 72 h", "method": "(§5) Methodology: Promastigotes from the three species studied were used for this study. They were left to grow in a culture flask and subsequently transferred to a 25 ml capacity conical bottom flask (steriling) so that there were 5×10^4 parasites/ml in each one. The amount of compound needed to reach IC25 of each product was added and completed with fresh culture medium to reach a final volume of 3 ml and incubated at 28° C. for 72 h. After that time, the flasks were centrifuged at 400 g for 10 minutes, and 2 ml of supernatant was transferred to Eppendorf® tubes. Next, they were analysed using proton nuclear resonance and the spectra were analysed with the Mestre Nova® software to obtain the metabolite production and excretion graphs. From these graphs, it can be inferred which enzyme has seen its activity altered by action of the compounds, depending on the increase or decrease of the metabolite produced by it.\n(§6) Both the decrease and increase in the metabolites analysed can be positive effects, indicating a malfunctioning of the metabolic pathway."}, "[4]": {"tested_on": "L.braziliensis promastigotes", "assay": "Alteration of production and excretion of metabolites (1H NMR)", "assay_type": "cell-based, Leishmania braziliensis", "conditions": "compound at IC25, 72 h; for Succinate production: versus control", "method": "as §5, §6"}, "[5]": {"tested_on": "FeSOD of the promastigote forms of L.braziliensis", "assay": "In vitro inhibition of FeSOD (NBT reduction)", "assay_type": "biochemical, Leishmania braziliensis", "method": "as §1, §2, §3"}, "[6]": {"tested_on": "intracellular forms of L.infantum in J774.2 macrophages", "assay": "Infection rate and parasite growth in infected macrophage cultures", "assay_type": "cell-based, Leishmania infantum", "conditions": "compound at IC25, 10 days", "method": "as §4"}, "Leishmania donovani": {"tested_on": "Leishmania donovani", "assay": "Mitochondrial membrane potential by rhodamine staining and flow cytometry", "assay_type": "cell-based", "conditions": "L.donovani, compound at IC25, 72 h", "method": "Methodology: Similar to the assay of Example 5, an amount of 5×10^4 parasites/ml of Leishmania donovani was re-treated with the IC25 of compounds 2 and 4, this time in a final volume in the 5 ml steriling conical bottom flasks. Again, after 72 h of incubation under the same conditions as described in Example 5, the flasks were centrifuged at 400 g for 10 minutes and the pellet was washed by resuspending with PBS three times. The pellet was resuspended with 0.5 mL of PBS with 10 µg/mL rhodamine after the last wash. A cytometry analysis was performed after 20 minutes of action of the rhodamine."}, "[7]": {"target": "T1, CuZnSOD of human erythrocytes (Homo sapiens, UniProt P00441)", "T1 construct": "the Cu/Zn-superoxide dismutase of human red blood cells from Boehringer Mannheim was used; purchased Boehringer Mannheim; host or cells: human red blood cells (erythrocytes)", "T1 sequence (P00441 whole entry)": "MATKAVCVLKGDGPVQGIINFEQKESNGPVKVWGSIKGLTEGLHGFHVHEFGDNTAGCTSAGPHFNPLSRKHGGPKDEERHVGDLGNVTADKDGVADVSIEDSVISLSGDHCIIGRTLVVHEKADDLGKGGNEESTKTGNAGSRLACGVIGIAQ", "assay": "In vitro inhibition of CuZnSOD (NBT reduction)", "assay_type": "biochemical", "text": "To conduct this assay, the Cu/Zn-superoxide dismutase of human red blood cells from Boehringer Mannheim was used, whilst the coenzymes and substrates were obtained from Sigma-Aldrich.\nInhibition caused by the novel compounds on FeSOD/ Cu-Zn SOD activity was quantified on the spectrophotometer at 560 nm according to the technique described by [W F. Beyer. I. Fridovich. Anal Biochem. 1987. 161: 559-66] based on the determination of the reduction of NBT (nitro blue tetrazolium) by superoxide ions and which the group of the present inventors has developed for the assay in trypanosomatides, being a routine technique in the laboratory of said group [F. Luque. et. al. Comp. Biochem. Physiol. C Toxicol. Pharmacol. 2000. […]\nBriefly, the cultured parasites as described in Example 1 underwent centrifugation, the pellet was resuspended (0.5 - 0.6 g/ml) in 3 ml of STE buffer (0.25 M. Tris-HCI 25 mM sucrose. 1 M EDTA. pH 7.8) and underwent 3 cycles of sonication from 30 s at 60 V. Then, it was centrifuged at 1500 g for 10 min at 4° C. and the pellet was washed 3 times with ice-cooled STE buffer. […] Protein concentrations were determined by means of the Bradford method (Sigma-Aldrich) using bovine serum albumin as standard. […] A first measurement of the absorbance at 560 nm was made on a spectrophotometer and, after 10 minutes under light and under stirring conditions, the absorbance was re-determined. […]"}, "L.infantum promastigotes": {"tested_on": "L.infantum promastigotes", "assay": "Alteration of production and excretion of metabolites (1H NMR)", "assay_type": "cell-based, Leishmania infantum", "conditions": "compound at IC25, 72 h, versus control", "method": "as §5, §6"}}, "note": "Entries after “also recorded” stand apart in the source; their conditions may differ.", "data": [{"compound": "CNCCNCc1cccnc1", "note": "[Compound 2, 1-{3-pyridyl)-2,5-diazahexane]", "values": [{"measurement": "Concentration for 50% inhibition (IC50) of FeSOD of L.donovani", "setting": "[1]", "result": "lower than that necessary for the enzyme of human erythrocytes; also recorded: showed ability to inhibit FeSOD; also recorded: low IC50 value"}, {"measurement": "Number of amastigotes per infected cell", "setting": "[2]", "result": "lowest values over time; also recorded: effective by decreasing"}, {"measurement": "Percentage of infection (infection rate)", "setting": "[2]", "result": "lowest values over time; also recorded: effective by decreasing"}, {"measurement": "Number of amastigotes per infected cell", "setting": "[3]", "result": "lowest values over time; also recorded: effective by decreasing"}, {"measurement": "Percentage of infection (infection rate)", "setting": "[3]", "result": "lowest values over time; also recorded: effective by decreasing"}, {"measurement": "Production and excretion of metabolites (metabolism, other metabolites analysed)", "setting": "L.donovani promastigotes", "result": "all the metabolites analysed increase"}, {"measurement": "Succinate production", "setting": "L.donovani promastigotes; versus control", "result": "increase in succinate production"}, {"measurement": "Production and excretion of metabolites (metabolism, other metabolites analysed)", "setting": "[4]", "result": "practically does not alter the other metabolites analysed"}, {"measurement": "Succinate production", "setting": "[4]", "result": "a certain increase of succinate"}, {"measurement": "Concentration for 50% inhibition (IC50) of FeSOD of L.braziliensis", "setting": "[5]", "result": "showed ability to inhibit FeSOD"}, {"measurement": "Number of amastigotes per infected cell", "setting": "[6]", "result": "lowest values over time"}, {"measurement": "Percentage of infection (infection rate)", "setting": "[6]", "result": "lowest values over time"}, {"measurement": "Effect on mitochondrial membrane potential", "setting": "Leishmania donovani", "result": "only a slight depolarisation"}]}, {"compound": "CN(C)CCNCc1ccccn1", "note": "[Compound 4, 1-(2-pyridyl)-5-methyl-2,5-diazahexane]", "values": [{"measurement": "Concentration for 50% inhibition (IC50) of FeSOD of L.donovani", "setting": "[1]", "result": "lower than that necessary for the enzyme of human erythrocytes; also recorded: showed ability to inhibit FeSOD"}, {"measurement": "Number of amastigotes per infected cell", "setting": "[2]", "result": "effective by decreasing"}, {"measurement": "Percentage of infection (infection rate)", "setting": "[2]", "result": "effective by decreasing"}, {"measurement": "Number of amastigotes per infected cell", "setting": "[3]", "result": "effective by decreasing"}, {"measurement": "Percentage of infection (infection rate)", "setting": "[3]", "result": "effective by decreasing"}, {"measurement": "Concentration for 50% inhibition (IC50) of CuZnSOD of human erythrocytes", "setting": "[7]", "result": "high IC50 value"}, {"measurement": "Production and excretion of metabolites (metabolism, other metabolites analysed)", "setting": "[4]", "result": "decrease of the remaining metabolites analysed"}, {"measurement": "Succinate production", "setting": "[4]", "result": "increase in succinate production"}, {"measurement": "Succinate production", "setting": "L.infantum promastigotes", "result": "increase in succinate production"}, {"measurement": "Concentration for 50% inhibition (IC50) of FeSOD of L.braziliensis", "setting": "[5]", "result": "lower than that necessary for the enzyme of human erythrocytes; also recorded: showed ability to inhibit FeSOD"}, {"measurement": "Number of amastigotes per infected cell", "setting": "[6]", "result": "better (lower) than those obtained with compound 5"}, {"measurement": "Percentage of infection (infection rate)", "setting": "[6]", "result": "lower infection rate on day 10"}, {"measurement": "Effect on mitochondrial membrane potential", "setting": "Leishmania donovani", "result": "only a slight depolarisation"}]}, {"compound": "CN(C)CCNCc1cccnc1", "note": "[Compound 5, 1-{3-pyridyl}-5-methyl-2,5-diazahexane]", "values": [{"measurement": "Percentage of infection (infection rate)", "setting": "[6]", "result": "lower infection rates than compound 4 until 8 days had elapsed"}]}]}
